This is an account of results in patent publication US9980943B2, “Methods of treating muscular dystrophy” (BOARD OF REGENTS OF THE NEVADA SYSTEM OF HIGHER EDUCATION, …, priority 2013, dated 2018).

Common to all, as to type: cell-based, mouse
The subject of test [1] is α7 integrin (LacZ reporter in α7βgal+/− myoblasts). The test can be described thus: Myoblast α7+/LacZ integrin FDG assay (Burkin assay in myoblasts, 96-well). As to conditions: α7+/LacZ myoblasts, 96-well.
The test system of test [2] is α7 integrin (LacZ reporter in α7+/LacZ myotubes). The test can be described thus: Myotube α7 integrin FDG assay (Burkin assay in myotubes, 96-well). The following applies: myotubes.
Test [3] has as its system β-galactosidase in CMV-LacZ C2C12 myotubes. As to the kind of experiment: CMV-LacZ secondary screen in C2C12 myotubes (β-Gal stabilizing assay). As to conditions: for CMV-LACZ in Myotubes, signal relative to DMSO: C2C12 CMV-LacZ myotubes, fold relative to DMSO; for CMV-LACZ in Myotubes (β-galactosidase activity relative to DMSO): CMV-LacZ C2C12 myotubes, 96-well format. A digest of the protocol: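 A secondary screen identifies compounds that stabilize β-gal independently of the native promoter, using CMV-LacZ C2C12 cells. Curves span 0.5–40 μM at six levels, in duplicate.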

Regarding `COc1ccc(Cl)cc1NC(=O)CC(=O)Nc1cc(Cl)ccc1OC` [MLS001166704-01], the “Burkin Assay in Myoblasts, signal relative to DMSO” value is 1.109 in test [1] (0.5 uM); 1.165 in test [1] (1 uM); 0.8499 in test [1] (5 uM); 0.7652 in test [1] (10 uM); 0.5747 in test [1] (20 uM); 0.4394 in test [1] (40 uM). The “Burkin Assay in Myotubes, α7 integrin LacZ reporter signal relative to DMSO” value in test [2] (0.5 uM) was determined as 1.166; in test [2] (1 uM), 1.268; in test [2] (5 uM), 0.8936; in test [2] (10 uM) it was 1.065; in test [2] (20 uM), 0.7918; in test [2] (40 uM), 0.81. Further, the “CMV-LACZ in Myotubes, signal relative to DMSO” value in test [3] (5 uM) amounted to 1.088; in test [3] (10 uM), 1.1553; in test [3] (20 uM) it was 1.4595; in test [3] (40 uM) it was 1.0685.
Consider `COc1cccc(N2C(=O)CC(N3CCc4ccccc4C3)C2=O)c1` (stereo not shown) [MLS000769322-01], for which the “Burkin Assay in Myoblasts, value relative to DMSO” value is 0.9535 in test [1] (0.5 uM); 0.9354 in test [1] (1 uM); 0.9653 in test [1] (5 uM); 1.0771 in test [1] (10 uM); 1.006 in test [1] (20 uM); 0.955 in test [1] (40 uM). Also, the “Burkin Assay in Myotubes (signal relative to DMSO)” value in test [2] (0.5 uM) is 0.9609; in test [2] (1 uM), 1.055; in test [2] (5 uM) it was 1.1195; in test [2] (10 uM) it was 1.165; in test [2] (20 uM), 1.067; in test [2] (40 uM), 1.019. In addition, the “CMV-LACZ in Myotubes (β-galactosidase activity relative to DMSO)” value in test [3] (5 uM) is on record as 0.8609; in test [3] (10 uM) it was 1.02; in test [3] (20 uM), 1.118; in test [3] (40 uM) it was 1.091.
Regarding `O=C(NCc1ccccc1)C(c1ccc(O)cc1)N(C(=O)Cn1nnc(-c2cccs2)n1)c1ccc2c(c1)OCCO2` (stereo not shown) [MLS000123454-01], the “Burkin Assay in Myoblasts, value relative to DMSO” value in test [1] (0.5 uM) was 0.8934; in test [1] (1 uM), 0.8234; in test [1] (5 uM) it was 0.7862; in test [1] (10 uM) it was 0.8621; in test [1] (20 uM), 1.519; in test [1] (40 uM) it was 1.013. Moreover, the “Burkin Assay in Myotubes (signal relative to DMSO)” value in test [2] (0.5 uM) was found to be 1.067; in test [2] (1 uM), 0.8963; in test [2] (5 uM), 1.047; in test [2] (10 uM), 1.083; in test [2] (20 uM) it was 0.6841; in test [2] (40 uM), 0.8852. Also, the “CMV-LACZ in Myotubes (β-galactosidase activity relative to DMSO)” value in test [3] (5 uM) is listed as 0.9353; in test [3] (10 uM), 0.9323; in test [3] (20 uM), 0.8796; in test [3] (40 uM), 1.055.
For the compound `Cc1ccc(NC(=O)NCc2nc3ccccc3n2C)cc1` [MLS001175592-01], the “Burkin Assay in Myoblasts, value relative to DMSO” value is 0.8989 in test [1] (0.5 uM); 0.8859 in test [1] (1 uM); 0.9323 in test [1] (5 uM); 0.9006 in test [1] (10 uM); 0.9731 in test [1] (20 uM); 0.9405 in test [1] (40 uM). Further, the “Burkin Assay in Myotubes (signal relative to DMSO)” value in test [2] (0.5 uM) stood at 0.9685; in test [2] (1 uM), 0.986; in test [2] (5 uM) it was 0.6911; in test [2] (10 uM), 1.034; in test [2] (20 uM) it was 0.6445; in test [2] (40 uM) it was 1.047. Moreover, the “CMV-LACZ in Myotubes, signal relative to DMSO” value came out at 0.947 in test [3] (5 uM), 1.031 in test [3] (10 uM), 0.9649 in test [3] (20 uM) and 1.018 in test [3] (40 uM).
For `CCOc1ccc(NC(=O)CN2C(=O)S/C(=C/c3cccn3C)C2=O)cc1` [MLS000702680-01], the “Burkin Assay in Myoblasts, signal relative to DMSO” value in test [1] (0.5 uM) was determined as 0.845; in test [1] (1 uM), 0.8804; in test [1] (5 uM), 0.8623; in test [1] (10 uM), 0.8908; in test [1] (20 uM), 0.6925; in test [1] (40 uM) it was 0.6264. Besides, the “Burkin Assay in Myotubes, α7 integrin LacZ reporter signal relative to DMSO” value in test [2] (0.5 uM) worked out at 1.016; in test [2] (1 uM), 0.9196; in test [2] (5 uM), 0.9678; in test [2] (10 uM), 0.7773; in test [2] (20 uM), 0.8074; in test [2] (40 uM) it was 0.7464. Further, the “CMV-LACZ in Myotubes, signal relative to DMSO” value amounted to 1.008 in test [3] (5 uM), 1.107 in test [3] (10 uM), 1.233 in test [3] (20 uM) and 1.181 in test [3] (40 uM).
Take `O=C(Nc1ccc(N2CCN(C(=O)c3ccccc3F)CC2)cc1)c1cncc(Br)c1` [MLS001060533-01]: the “Burkin Assay in Myoblasts, value relative to DMSO” value in test [1] (0.5 uM) is reported as 0.9049; in test [1] (1 uM), 0.9915; in test [1] (5 uM) it was 1.033; in test [1] (10 uM) it was 1.101; in test [1] (20 uM) it was 1.397; in test [1] (40 uM), 1.22. Moreover, the “Burkin Assay in Myotubes (signal relative to DMSO)” value is 0.9464 in test [2] (0.5 uM); 1.208 in test [2] (1 uM); 1.318 in test [2] (5 uM); 1.52 in test [2] (10 uM); 1.342 in test [2] (20 uM); 1.117 in test [2] (40 uM). Also, the “CMV-LACZ in Myotubes (β-galactosidase activity relative to DMSO)” value in test [3] (5 uM) is reported as 0.8358; in test [3] (10 uM), 0.7789; in test [3] (20 uM), 0.7716; in test [3] (40 uM), 0.6871.
For the compound `CCS(=O)(=O)N1CCCC(C(=O)c2ccc(OC)cc2C)C1` (stereo not shown) [MLS000693747-01], the “Burkin Assay in Myoblasts, value relative to DMSO” value in test [1] (0.5 uM) worked out at 1.114; in test [1] (1 uM), 1.036; in test [1] (5 uM) it was 1.0596; in test [1] (10 uM), 1.088; in test [1] (20 uM), 0.8796; in test [1] (40 uM) it was 0.9175. The “Burkin Assay in Myotubes (signal relative to DMSO)” value in test [2] (0.5 uM) amounted to 1.061; in test [2] (1 uM), 0.7194; in test [2] (5 uM) it was 1.433; in test [2] (10 uM) it was 0.9111; in test [2] (20 uM), 1.122; in test [2] (40 uM) it was 1.0456. Further, the “CMV-LACZ in Myotubes (β-galactosidase activity relative to DMSO)” value in test [3] (5 uM) is on record as 0.9962; in test [3] (10 uM), 0.9523; in test [3] (20 uM), 0.9693; in test [3] (40 uM) it was 1.043.
